The source made the active and inactive calls. The rule behind the calls is not given here.
Experiments:
MDA-MB-231 = experiment: Antiproliferative activity against human MDA-MB-231 cells; format: functional, cell-based
Estrogen receptor = molecular target: T1, Estrogen receptor (Homo sapiens, UniProt P03372); experiment: Transactivation of ERalpha in human MCF7-2a cells assessed as luciferase reporter gene expression; format: cell-based
T1 sequence (P03372 whole entry): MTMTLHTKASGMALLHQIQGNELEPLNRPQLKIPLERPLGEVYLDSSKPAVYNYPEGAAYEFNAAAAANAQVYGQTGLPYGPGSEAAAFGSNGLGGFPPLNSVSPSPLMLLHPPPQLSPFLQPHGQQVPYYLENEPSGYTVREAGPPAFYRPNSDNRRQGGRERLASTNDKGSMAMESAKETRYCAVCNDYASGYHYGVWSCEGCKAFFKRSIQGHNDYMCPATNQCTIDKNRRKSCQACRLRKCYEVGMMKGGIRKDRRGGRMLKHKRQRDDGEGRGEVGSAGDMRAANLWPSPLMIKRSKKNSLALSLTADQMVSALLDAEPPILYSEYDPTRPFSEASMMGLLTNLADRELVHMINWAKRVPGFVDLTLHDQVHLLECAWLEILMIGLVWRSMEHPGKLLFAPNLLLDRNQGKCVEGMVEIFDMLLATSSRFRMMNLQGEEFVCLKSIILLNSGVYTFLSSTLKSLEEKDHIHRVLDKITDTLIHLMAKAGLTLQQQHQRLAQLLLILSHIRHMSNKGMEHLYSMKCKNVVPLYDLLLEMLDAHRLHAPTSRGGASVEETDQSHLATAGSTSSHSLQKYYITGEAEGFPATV

MCF7 = experiment: Antiproliferative activity against human MCF7 cells; format: functional, cell-based
[1] = molecular target: T2, Estrogen receptor (Homo sapiens) (UniProt P03372); experiment: Transactivation of ERalpha in human MCF7-2a cells assessed as luciferase reporter gene expression at 1 uM relative to estradiol; format: cell-based
T2 sequence (whole entry): T1 sequence (P03372 whole entry)

Activity [1]	SMILES	Activity (MDA-MB-231)	EC50 (Estrogen receptor)	Activity (MCF7)
–	C#CCN1C=NC(c2ccc(O)cc2Cl)C1c1ccc(O)cc1Cl (stereo unspecified)	inactive	10 nM	inactive
13%	C#CCN1C=NC(c2ccc(OC)cc2Cl)C1c1ccc(OC)cc1Cl (stereo unspecified)	inactive	–	inactive

— ChEMBL document CHEMBL1152270, “Cobalt-alkyne complexes with imidazoline ligands as estrogenic carriers: synthesis and pharmacological investigations” (J Med Chem, 2008)
